Data as given in US7230011B2, “Benzenesulfonic acid indol-5-yl esters as antagonists of the 5ht6 receptor” (Eli Lilly and Company, priority 2002, dated 2007).
Where two headings read alike, the source gives them in different places.

Assays:
[1] = cited from earlier work; for pharmacokinetics: in words
yawning behavior = details: in vivo; cited from earlier work
[2] = system: glutamate release in the prefrontal cortex; details: 10 mg/kg, sc; cited from earlier work
Morris water maze = details: in vivo; cited from earlier work
aged rats = details: cited from earlier work
Male Sprague-Dawley rats = details: s.c., six-hour delay
5-HT6 receptor = 5-HT6 receptor (Homo sapiens, UniProt P50406); details: 5-HT6 receptor, cited from earlier work
5-HT6 receptor, sequence (P50406 whole entry): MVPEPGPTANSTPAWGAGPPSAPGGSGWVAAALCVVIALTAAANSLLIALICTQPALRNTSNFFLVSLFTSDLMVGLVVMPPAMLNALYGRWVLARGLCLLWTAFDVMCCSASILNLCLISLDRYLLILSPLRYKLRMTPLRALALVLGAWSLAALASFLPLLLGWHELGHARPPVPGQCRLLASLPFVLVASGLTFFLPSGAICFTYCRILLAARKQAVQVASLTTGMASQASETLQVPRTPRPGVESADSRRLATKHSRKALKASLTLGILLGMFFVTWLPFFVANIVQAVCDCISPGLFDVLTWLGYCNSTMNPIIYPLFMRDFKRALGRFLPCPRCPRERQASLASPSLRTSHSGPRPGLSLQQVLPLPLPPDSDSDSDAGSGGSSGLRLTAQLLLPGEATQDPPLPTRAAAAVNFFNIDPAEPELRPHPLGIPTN

5-HT2A receptor = 5-HT2A receptor (Homo sapiens, UniProt P28223); details: 5-HT6 versus 5-HT2A; cited from earlier work
5-HT2A receptor, sequence (P28223 whole entry): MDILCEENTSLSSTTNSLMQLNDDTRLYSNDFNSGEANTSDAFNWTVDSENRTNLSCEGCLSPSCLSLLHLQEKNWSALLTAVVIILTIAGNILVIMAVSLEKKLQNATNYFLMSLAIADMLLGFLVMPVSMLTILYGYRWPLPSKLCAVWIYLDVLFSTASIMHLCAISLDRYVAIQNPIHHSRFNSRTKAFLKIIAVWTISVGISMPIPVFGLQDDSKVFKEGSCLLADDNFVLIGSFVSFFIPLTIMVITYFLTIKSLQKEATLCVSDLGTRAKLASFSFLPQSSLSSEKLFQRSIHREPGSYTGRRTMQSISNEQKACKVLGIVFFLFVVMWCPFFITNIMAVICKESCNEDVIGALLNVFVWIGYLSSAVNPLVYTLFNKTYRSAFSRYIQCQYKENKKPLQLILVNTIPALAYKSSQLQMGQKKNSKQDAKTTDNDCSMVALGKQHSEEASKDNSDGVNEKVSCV

stretching behavior = details: cited from earlier work; for block of stretching behavior induced by Ro 04-6790: methyl-scopolamine at doses known to be peripherally selective
[3] = system: rats with unilateral nigrostriatal 6-OH-DA lesions; details: cited from earlier work
object recognition test = details: in vivo; cited from earlier work

## COc1ccc(NS(=O)(=O)c2sc3ccc(Cl)cc3c2C)cc1N1CCNCC1 [SB-271,046]
[1]; in vivo
  bioavailable: 80%
Yawning behavior
  yawning behavior induced by physostigmine: potentiated the yawning behavior
[2]
  glutamate release in the prefrontal cortex: increases glutamate release
Morris water maze
  performance in the Morris water maze: improved performance
Aged rats
  spatial alternation operant behavior test: improvements

## Nc1c2c(nc3ccccc13)CCCC2 [Tacrine, tacrine]
Male Sprague-Dawley rats; 3 mg/kg
  retention: not
Male Sprague-Dawley rats; 10 mg/kg
  retention: significantly improved retention

## CCc1[nH]c2ccc(OC)cc2c1CCN(C)C [N,N-dimethyl-2-ethyl-5-methoxytryptamine]
5-HT6 receptor
  Ki: 81 nM
5-HT2A receptor
  selectivity versus the 5-HT2A receptor: 3.5 fold

## CNc1cc(NS(=O)(=O)c2ccc(N)cc2)cc(NC)n1 [Ro 63-0563]
5-HT6 receptor; read-out: Ki
  Ki: 12 nM
[1]
  pharmacokinetics: poor pharmacokinetics

## Ro 04-6790
5-HT6 receptor; read-out: Ki
  Ki: 50 nM
[1]
  pharmacokinetics: poor pharmacokinetics
Stretching behavior; rat, in vivo
  stretching behavior: induced stretching behavior in a dose-dependent manner
[3]; rat, in vivo
  rotational behavior induced by L-DOPA or amphetamine: did not block
[3]; rats, unilateral nigrostriatal 6-OH-DA lesions
  rotation behavior induced by scopolamine: block the rotation behavior
Object recognition test
  scopolamine induced performance deficits in the object recognition test: reversed scopolamine induced performance deficits

## CN1[C@@H]2C[C@@H](OC(=O)[C@H](CO)c3ccccc3)C[C@H]1[C@@H]1O[C@@H]12 [Scopolamine, scopolamine]
Stretching behavior
  block of stretching behavior induced by Ro 04-6790: blocked

## CN1[C@@H]2CC[C@H]1C[C@@H](OC(=O)C(CO)c1ccccc1)C2 (some centres unmarked) [atropine]
Stretching behavior; antisense icv to rats
  block of yawning and stretching behavior induced by antisense oligonucleotides targeting the 5-HT6 receptor: blocked
Stretching behavior
  block of stretching behavior induced by Ro 04-6790: blocked
